Measured values from US20100081162A1, “METHOD OF EVALUATING ANTIWRINKLE SUBSTANCE AND METHOD OF ASSESSING THE SKIN” (POLA CHEMICAL INDUSTRIES INC., priority 2007, published 2010).

Tests used:
collagen fiber bundles = test: Tightness in collagen fiber bundles in collagen gel with NHDF in the presence of heparin (SEM); format: cell-based, human
integrin gene = test: Effect of farrerol on expression amount of integrin gene (real-time PCR); format: cell-based; conditions: normal human fibroblasts, 5 days
Procedure: (§1) In the normal human fibroblasts cultivated in a culture solution with or without farrerol for 5 days, the expression amounts of the integrin gene and the type-I collagen gene as a main component of dermal collagen were evaluated by the real-time PCR. The procedure followed the procedure in Example 1 except for the used primer. It should be noted that the following QuantiTect (registered trademark) Primer Assays was used as a primer. […] Specifically, the expression amount of the β1 protein gene increased by a factor of about 1.9, the expression amount of the α2 protein gene increased by a factor of about 2.6, and the expression amount of the α5 protein gene increased by a factor of about 1.7.

β1 protein gene (ITGB1) = test: Effect of farrerol on expression amount of β1 protein gene (real-time PCR); format: cell-based; conditions: normal human fibroblasts, 5 days
Procedure: as §1

α2 protein gene (ITGA2) = test: Effect of farrerol on expression amount of α2 protein gene (real-time PCR); format: cell-based; conditions: normal human fibroblasts, 5 days
Procedure: as §1

α5 protein gene (ITGA5) = test: Effect of farrerol on expression amount of α5 protein gene (real-time PCR); format: cell-based; conditions: normal human fibroblasts, 5 days
Procedure: as §1

[1] = tested on: type-I collagen gene (COL1A1, COL1A2); test: Effect of farrerol on expression amount of type-I collagen gene (real-time PCR); format: cell-based; conditions: normal human fibroblasts, 5 days
Procedure: as §1

Molecule	effect on inhibition of tightness of collagen fiber bundles due to heparin (collagen fiber bundles; NHDF in collagen gel, 0.1% or 1% heparin, farrerol 10^−6% or 10^−7% at final, 5 days, SEM)	increase in the expression amount of the integrin gene (factor, with vs without farrerol) (integrin gene)	increase in the expression amount of the β1 protein gene (factor) (β1 protein gene (ITGB1))	increase in the expression amount of the α2 protein gene (factor) (α2 protein gene (ITGA2))	increase in the expression amount of the α5 protein gene (factor) (α5 protein gene (ITGA5))	expression amount of the type-I collagen gene [1]	effect on tightness in collagen fiber bundles (collagen fiber bundles; heparin alone)
Cc1c(O)c(C)c2c(c1O)C(=O)C[C@@H](c1ccc(O)cc1)O2 [farrerol]	suppressed inhibition of tightness of collagen fiber bundles due to heparin	≥ 1.5 factor	about 1.9 factor	about 2.6 factor	about 1.7 factor	not significantly increased	–
Heparin	–	–	–	–	–	–	inhibitory effect
